Test results reported in patent US20090105292A9, “Glucocorticoid Receptor Modulator Compounds and Methods” (LIGAND PHARMACEUTICALS INCORPORATED, priority 2004, published 2009).

The molecules below were run against T1, human glucocorticoid receptor protein (GR) (Homo sapiens, UniProt P04150) (assay: Glucocorticoid receptor binding assay ([3H]dexamethasone competition, GR lysate)). Settings: not given.
T1 construct: made in house; host or cells: Spodoptera frugiperda Sf21 insect cells (baculovirus)
T1 sequence (P04150 1-777): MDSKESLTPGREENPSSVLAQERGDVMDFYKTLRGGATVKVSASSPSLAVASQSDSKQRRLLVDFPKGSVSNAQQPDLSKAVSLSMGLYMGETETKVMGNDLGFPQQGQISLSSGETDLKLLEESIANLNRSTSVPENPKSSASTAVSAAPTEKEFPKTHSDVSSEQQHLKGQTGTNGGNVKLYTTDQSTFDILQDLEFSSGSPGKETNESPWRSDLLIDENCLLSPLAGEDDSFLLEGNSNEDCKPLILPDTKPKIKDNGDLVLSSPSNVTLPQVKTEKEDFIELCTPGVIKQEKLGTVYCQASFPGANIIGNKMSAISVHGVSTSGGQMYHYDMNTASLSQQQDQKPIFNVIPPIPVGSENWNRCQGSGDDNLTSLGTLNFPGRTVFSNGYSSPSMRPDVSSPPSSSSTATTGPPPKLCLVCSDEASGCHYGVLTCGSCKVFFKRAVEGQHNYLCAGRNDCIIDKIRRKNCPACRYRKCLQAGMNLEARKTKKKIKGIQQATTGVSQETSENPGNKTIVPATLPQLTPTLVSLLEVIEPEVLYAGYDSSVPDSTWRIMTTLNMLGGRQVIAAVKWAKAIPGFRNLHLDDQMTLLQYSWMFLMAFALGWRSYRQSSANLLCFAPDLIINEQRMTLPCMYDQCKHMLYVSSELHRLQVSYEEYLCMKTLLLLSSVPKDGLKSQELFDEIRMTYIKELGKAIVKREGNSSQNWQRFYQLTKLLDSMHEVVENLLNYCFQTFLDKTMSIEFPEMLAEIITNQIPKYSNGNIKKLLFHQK
Experimental: A baculovirus expression plasmid containing cDNA encoding the human glucocorticoid receptor protein (GR) was prepared using standard techniques. […] That expression plasmid was co-transfected together with wild type Autographa californica multiple nuclear polyhedrosis virus DNA into Spodopter frugiperda-21 (Sf-21) cells to generate recombinant virus containing GR cDNA. See e.g., O'Reilly, D. R., Miller, L. K., Luckow, V. A., Regulation of expression of a baculovirus ecdysteroid UDP glucosyltransferase gene. […] That recombinant virus containing GR cDNA was collected.
A suspension culture of uninfected Sf21 cells was grown to a density of 1.2×10^6 cells/ml and then infected with the recombinant virus containing GR cDNA at a multiplicity of infection of 2. Those infected Sf21 cells were incubated for 48 hours and then collected by centrifugation at 1000×g for 10 minutes at 4° C. The resulting cell pellets were resuspended in lysis buffer (50 mM Potassium Phosphate buffer, pH 7.0, 10 mM Monothioglycerol, 5 mM DTT, 20 mM Sodium Molybdate, 1 mM PMSF, 1 μg/mL aprotinin, and 10 μg/mL leupeptin) and incubated for 15 minutes on ice. Those resuspended cell pellets were homogenized using a Dounce homogenizer and a B pestle. A volume of 2 M KCl was added to the homogenized cell pellets to a final concentration of 0.4 M. The resulting GR lysates were centrifuged at 100,000×g for 60 min at 4° C. and stored for use in binding assays.
Binding assay samples were prepared in separate mini-tubes in a 96-well format at 4° C. Each binding assay sample was prepared in a volume of 250 μL of Assay Buffer (10% glycerol, 25 mM sodium phosphate, 10 mM potassium fluoride, 10 mM sodium molybdate, 0.25 mM CHAPS, 2 mM DTT and 1 mM EDTA, (adjusted to pH 7.5)) containing 50 μg of GR lysate; 2-4 nM of [^3H]dexamethasone at 84 Ci/mmol; and either a reference compound or a test compound. […] Each reference compound and test compound was assayed at varying concentrations, ranging from 0 to 10^−5 M. Each concentration of each reference compound and each test compound was assayed in triplicate. The assay samples were incubated for 16 hours at 4° C.
The assay samples were then centrifuged and the supernatants were discarded. The resulting pellets were washed twice with assay buffer lacking DTT. Radioactivity in counts per minute (CPM) of each washed pellet was determined by liquid scintillation counter (MicroBeta™, Wallach).
Specific binding for a particular sample was calculated using the equation: (Sample CPM)−(Average Non-specific CPM)
Average Non-specific CPM was defined as the amount of radioactivity from samples containing an excess (i.e. 1000 nM) of unlabeled dexamethasone. […] Ki values were determined using the Cheng-Prusoff equation using a previously determined Kd value for dexamethasone: Ki=IC50/(1+[L]/Kd)
[L]=concentration of labeled dexamethasone
Kd=dissociation constant of labeled dexamethasone

| Ki | Compound |
| --- | --- |
| 1 to 2 nM | COc1c(O)ccc2c1-c1ccc3c(c1/C(=C/c1cccc(C(F)(F)F)c1)O2)C(C)=CC(C)(C)N3 [Compound 11, (Z)-5-(3′-trifluoromethylbenzylidene)-1,2-dihydro-9-hydroxy-10-methoxy-2,2,4-trimethyl-5H-chromeno[3,4-f]quinoline] |
| < 1 nM | COc1c(O)ccc2c1-c1ccc3c(c1/C(=C/c1ccccc1F)O2)C(C)=CC(C)(C)N3 [Compound 12, (Z)-5-(2′-fluorobenzylidene)-1,2-dihydro-9-hydroxy-10-methoxy-2,2,4-trimethyl-5H-chromeno[3,4-f]quinoline] |
| > 3 nM | COc1c(O)ccc2c1-c1ccc3c(c1/C(=C/c1cccc(OC(F)(F)F)c1)O2)C(C)=CC(C)(C)N3 [Compound 22, (Z)-5-(3′-trifluoromethoxybenzylidene)-1,2-dihydro-9-hydroxy-10-methoxy-2,2,4-trimethyl-5H-chromeno[3,4-f]quinoline] |

Same assay, conditions: competition with 2-4 nM [3H]dexamethasone, 16 hours at 4° C., Cheng-Prusoff; read-out: Ki

| Compound | Ki |
| --- | --- |
| COc1c(O)ccc2c1-c1ccc3c(c1/C(=C/c1sccc1C(C)O)O2)C(C)=CC(C)(C)N3 (racemic) [Compound 171, (±)-(Z)-5-(2′-(3′-(1″-Hydroxyethyl)thienylmethylidene))1,2-dihydro-9-hydroxy-10-methoxy-2,2,4-trimethyl-5H-chromeno[3,4-f]quinoline] | 1 to 2 nM |
| COc1c(O)ccc2c1-c1ccc3c(c1/C(=C/c1sccc1C(O)C(F)(F)F)O2)C(C)=CC(C)(C)N3 (racemic) [Compound 202, (±)-(Z)-5-(2′-(3′-(1″-Hydroxy-2″,2″,2″-trifluoroethyl)thienylmethylidene))1,2-dihydro-9-hydroxy-10-methoxy-2,2,4-trimethyl-5H-chromeno[3,4-f]quinoline] | 1 to 2 nM |
| C=CCC(O)c1ccsc1C=C1Oc2ccc(O)c(OC)c2-c2ccc3c(c21)C(C)=CC(C)(C)N3 (single isomer, unassigned; (+)) [Compound 200, (+)-(Z)-5-(2′-(3′-(1″-Hydroxybut-3″-enyl)thienylmethylidene))1,2-dihydro-9-hydroxy-10-methoxy-2,2,4-trimethyl-5H-chromeno[3,4-f]quinoline] | 1 to 2 nM |
| C=CCC(O)c1ccsc1C=C1Oc2ccc(O)c(OC)c2-c2ccc3c(c21)C(C)=CC(C)(C)N3 (single isomer, unassigned; (-)) [Compound 201, (−)-(Z)-5-(2′-(3′-(1″-Hydroxybut-3″-enyl)thienylmethylidene))1,2-dihydro-9-hydroxy-10-methoxy-2,2,4-trimethyl-5H-chromeno[3,4-f]quinoline] | 1 to 2 nM |
| COc1c(O)ccc2c1-c1ccc3c(c1/C(=C/c1cc(Cl)ccc1Cl)O2)C(C)=CC(C)(C)N3 [Compound 14, (Z)-5-(2′,5′-dichlorobenzylidene)-1,2-dihydro-9-hydroxy-10-methoxy-2,2,4-trimethyl-5H-chromeno[3,4-f]quinoline] | 2 to 3 nM |
| COc1c(O)ccc2c1-c1ccc3c(c1/C(=C/c1cccc(C(F)(F)F)c1F)O2)C(C)=CC(C)(C)N3 [Compound 29, (Z)-5-(2′-fluoro-3′-trifluoromethylbenzylidene)-1,2-dihydro-9-hydroxy-10-methoxy-2,2,4-trimethyl-5H-chromeno[3,4-f]quinoline] | 2 to 3 nM |
| C=Cc1ccc(/C=C2\Oc3ccc(O)c(OC)c3-c3ccc4c(c32)C(C)=CC(C)(C)N4)cc1 [Compound 63, (Z)-5-(4′-vinylbenzylidene)-1,2-dihydro-9-hydroxy-10-methoxy-2,2,4-trimethyl-5H-chromeno[3,4-f]quinoline] | 1 to 2 nM |
| COc1c(O)ccc2c1-c1ccc3c(c1/C(=C/c1ccc4c(c1)OCO4)O2)C(C)=CC(C)(C)N3 [Compound 67, (Z)-5-(3′,4′-methylenedioxybenzylidene)-1,2-dihydro-9-hydroxy-10-methoxy-2,2,4-trimethyl-5H-chromeno[3,4-f]quinoline] | < 1 nM |
| COc1c(O)ccc2c1-c1ccc3c(c1/C(=C/c1cccc(OCCF)c1)O2)C(C)=CC(C)(C)N3 [Compound 86, (Z)-5-(3′-(2″-fluoroethoxy)benzylidene)-1,2-dihydro-9-hydroxy-10-methoxy-2,2,4-trimethyl-5H-chromeno[3,4-f]quinoline] | 1 to 2 nM |
| COc1c(O)ccc2c1-c1ccc3c(c1/C(=C/c1ccc(F)cc1S(=O)(=O)N(C)C)O2)C(C)=CC(C)(C)N3 [Compound 103, (Z)-5-(2′-dimethylaminosulphonyl-4′-fluorobenzylidene)-1,2-dihydro-9-hydroxy-10-methoxy-2,2,4-trimethyl-5H-chromeno[3,4-f]quinoline] | 1 to 2 nM |

Next, values leading:

| Ki | Compound |
| --- | --- |
| < 1 nM | COc1cccc(/C=C2\Oc3ccc(O)c(OC)c3-c3ccc4c(c32)C(C)=CC(C)(C)N4)c1 [Compound 15, (Z)-5-(3′-methoxybenzylidene)-1,2-dihydro-9-hydroxy-10-methoxy-2,2,4-trimethyl-5H-chromeno[3,4-f]quinoline] |
| < 1 nM | COc1c(O)ccc2c1-c1ccc3c(c1/C(=C/c1cc(F)ccc1C)O2)C(C)=CC(C)(C)N3 [Compound 37, (Z)-5-(5′-fluoro-2′-methylbenzylidene)-1,2-dihydro-9-hydroxy-10-methoxy-2,2,4-trimethyl-5H-chromeno[3,4-f]quinoline] |
| < 1 nM | CCN(CC)C(=O)c1ccccc1/C=C1\Oc2ccc(O)c(OC)c2-c2ccc3c(c21)C(C)=CC(C)(C)N3 [Compound 75, (Z)-5-(2′-diethylaminocarbonylbenzylidene)-1,2-dihydro-9-hydroxy-10-methoxy-2,2,4-trimethyl-5H-chromeno[3,4-f]quinoline] |
| < 1 nM | COc1c(O)ccc2c1-c1ccc3c(c1/C(=C/c1ccccc1C(=O)N1CCCC1)O2)C(C)=CC(C)(C)N3 [Compound 90, (Z)-5-(2′-(pyrrolidinecarbonyl)benzylidene)-1,2-dihydro-9-hydroxy-10-methoxy-2,2,4-trimethyl-5H-chromeno[3,4-f]quinoline] |
| < 1 nM | COc1c(O)ccc2c1-c1ccc3c(c1/C(=C/c1ccccc1C#N)O2)C(C)=CC(C)(C)N3 [Compound 107, (Z)-5-(2′-cyanobenzylidene)-1,2-dihydro-9-hydroxy-10-methoxy-2,2,4-trimethyl-5H-chromeno[3,4-f]quinoline] |
| > 3 nM | COc1c(O)ccc2c1-c1ccc3c(c1/C(=C/c1cccc4ccccc14)O2)C(C)=CC(C)(C)N3 [Compound 111, (Z)-5-(1′-naphthylmethylidene)-1,2-dihydro-9-hydroxy-10-methoxy-2,2,4-trimethyl-5H-chromeno[3,4-f]quinoline] |
| 1 to 2 nM | COc1c(O)ccc2c1-c1ccc3c(c1/C(=C/c1sccc1C(=O)N(C)C)O2)C(C)=CC(C)(C)N3 [Compound 132, (Z)-5-(2′-(3′-(dimethylaminocarbonyl)thienylmethylidene))-1,2-dihydro-9-hydroxy-10-methoxy-2,2,4-trimethyl-5H-chromeno[3,4-f]quinoline] |
| < 1 nM | CCN(C)C(=O)c1ccsc1/C=C1\Oc2ccc(O)c(OC)c2-c2ccc3c(c21)C(C)=CC(C)(C)N3 [Compound 134, (Z)-5-(2′-(3′-(ethylmethylaminocarbonyl)thienylmethylidene))-1,2-dihydro-9-hydroxy-10-methoxy-2,2,4-trimethyl-5H-chromeno[3,4-f]quinoline] |
